Assay results reported in patent US6048854A, “2,3-diaminopropionic acid derivative” (Sumitomo Pharmaceuticals Company, Limited, priority 1993, dated 2000).

Test system: platelet aggregation
Assay: Platelet aggregation inhibitory activity (ADP-induced, human platelet rich plasma)
Type: cell-based
Settings: Homo sapiens, Table 2, same manner as Example 17
Procedure: The blood was collected from the elbow vein of a normal volunteer with mixing thereof with 1/10 volume of 3.8% sodium citrate, and the blood was centrifuged at 1000 rpm (150 g) for 10 minutes to give the supernatant as platelet rich plasma (PRP). To PRP (200 μl) was added a test compound solution (2 μl), and the mixture was incubated with stirring at 1000 rpm at 37° C. for two minutes, and thereto was added a platelet aggregator, adenosine diphosphate (ADP, 22 μl) at a final concentration of 3 μg/ml. The platelet aggregation activity was determined by nephelometric analysis using a Hematracer (manufactured by Niko Bioscience, Ltd.). The test results of platelet aggregation inhibitory activity are expressed by IC50, which is a concentration of the test compound being required to inhibit the platelet aggregation reaction by 50%.
The compounds of Examples 18 to 70 were tested in the same manner as in Example 17.
The compounds of Examples 72 to 116 were tested in the same manner as in Example 17.

Row | SMILES | IC50 [nM]
1 | O=C(CCC1CCNCC1)NCCC(=O)NC[C@H](NS(=O)(=O)c1ccc2ccccc2c1)C(=O)O [Example 43, (2S)-2-(2-naphthalene)sulfonylamino-3-(3-(3-(4-piperidyl)propanoylamino)propanoylamino)propanoic Acid] | 260
2 | CCS(=O)(=O)N[C@@H](CNC(=O)CCNC(=O)CCC1CCNCC1)C(=O)O [Example 44, (2S)-2-ethanesulfonylamino-3-(3-(3-(4-piperidyl)propanoylamino)propanoylamino)propanoic Acid] | 263
3 | CCCS(=O)(=O)N[C@@H](CNC(=O)CCNC(=O)CCC1CCNCC1)C(=O)O [Example 45, (2S)-3-(3-(3-(4-piperidyl)propanoylamino)propanoylamino)-2-propanesulfonylaminopropanoic Acid] | 121
4 | COc1cc(C)c(S(=O)(=O)N[C@@H](CNC(=O)CCNC(=O)CCC2CCNCC2)C(=O)O)c(C)c1C [Example 46, (2S)-2-(4-methoxy-2,3,6-trimethyl)benzenesulfonylamino-3-(3-(3-(4-piperidyl)propanoylamino)propanoylamino)propanoic Acid] | 32
5 | O=C(CCC1CCNCC1)NCCC(=O)NC[C@H](NS(=O)(=O)c1ccc(OC(F)(F)F)cc1)C(=O)O [Example 47, (2S)-3-(3-(3-(4-piperidyl)propanoylamino)propanoylamino)-2-(4-trifluoromethoxy)benzenesulfonylaminopropanoic Acid] | 238
6 | CCCCOc1ccc(S(=O)(=O)N[C@@H](CNC(=O)CCNC(=O)CCC2CCNCC2)C(=O)O)cc1 [Example 48, (2S)-2-(4-butoxy)benzenesulfonylamino-3-(3-(3-(4-piperidyl)propanoylamino)propanoylamino)propanoic Acid] | 67
7 | CCCc1ccc(S(=O)(=O)N[C@@H](CNC(=O)CCNC(=O)CCC2CCNCC2)C(=O)O)cc1 [Example 49, (2S)-3-(3-(3-(4-piperidyl)propanoylamino)propanoylamino)-2-(4-propyl)benzenesulfonylaminopropanoic Acid] | 170
8 | CC(C)c1ccc(S(=O)(=O)N[C@@H](CNC(=O)CCNC(=O)CCC2CCNCC2)C(=O)O)cc1 [Example 50, (2S)-2-(4-isopropyl)benzenesulfonylamino-3-(3-(3-(4-piperidyl)propanoylamino)propanoylamino)propanoic Acid] | 203
9 | O=C(CCCC1CCNCC1)NCCC(=O)NC[C@H](NS(=O)(=O)c1ccccc1)C(=O)O [Example 53, (2S)-2-benzenesulfonylamino-3-(3-(4-(4-piperidyl)butanoylamino)propanoylamino)propanoic Acid] | 111
10 | O=C(CCCC(=O)NC[C@H](NS(=O)(=O)c1ccccc1)C(=O)O)NCC1CCNCC1 [Example 54, (2S)-2-benzenesulfonylamino-3-(4-(4-piperidylmethylcarbamoyl)butanoylamino)propanoic Acid] | 79
11 | O=C(CCNC(=O)COC1CCNCC1)NC[C@H](NS(=O)(=O)c1ccccc1)C(=O)O [Example 55, (2S)-2-benzenesulfonylamino-3-(3-(2-(4-piperidyloxy)ethanoylamino)propanoylamino)propanoic Acid] | 300
12 | CCCCS(=O)(=O)N[C@@H](CNC(=O)CCCOc1ccc(C(=N)N)cc1)C(=O)O [Example 56, (2S)-3-(4-(4-amidinophenoxy)butanoylamino)-2-butanesulfonylaminopropanoic Acid] | 90
13 | CCCCS(=O)(=O)N[C@@H](CNC(=O)CCCCOc1ccc(C(=N)N)cc1)C(=O)O [Example 65, (2S)-3-(5-(4-amidinophenoxy)pentanoylamino)-2-butanesulfonylaminopropanoicAcid] | 79
14 | COc1ccc(S(=O)(=O)N[C@@H](CNC(=O)CCCCc2ccc(C(=N)N)cc2)C(=O)O)cc1 [Example 66, (2S)-3-(5-(4-amidinophenyl)pentanoylamino)-2-(4-methoxy)benzenesulfonylaminopropanoic Acid] | 16
15 | COc1ccc(S(=O)(=O)N[C@@H](CNC(=O)C2CCCN(C(=O)CCC3CCNCC3)C2)C(=O)O)cc1 (stereo partly drawn) [Example 70, (2S)-2-(4-methoxy)benzenesulfonylamino-3-(1-(3-(4-piperidyl)propanoyl)-3-piperidylcarbonylamino)propanoic Acid] | 57

Same assay, conditions: Homo sapiens, Table 3, same manner as Example 17

Row | SMILES | IC50 [nM]
16 | COc1cccc2c(S(=O)(=O)N[C@@H](CNC(=O)CCNC(=O)CCC3CCNCC3)C(=O)O)cccc12 [Example 72, (2S)-2-(5-methoxy-1-naphthalene)sulfonylamino-3-(3-(3-(4-piperidyl)propanoylamino)propanoylamino)propanoic Acid] | 52
17 | N=C(N)c1ccc(C(=O)NCCC(=O)NC[C@@H](NS(=O)(=O)c2ccccc2)C(=O)O)cc1 [Example 73, (2R)-3-(3-(4-amidinobenzoylamino)propanoylamino)-2-benzenesulfonylaminopropanoic Acid] | 162
18 | N=C(N)c1ccc(C(=O)NCCC(=O)NC[C@H](NS(=O)(=O)c2ccccc2N)C(=O)O)cc1 [Example 81, (2S)-3-(3-(4-amidinobenzoylamino)propanoylamino)-2-(2-amino)benzenesulfonylaminopropanoic Acid] | 28
19 | N=C(N)c1ccc(OCCCC(=O)NC[C@H](NS(=O)(=O)c2ccccc2N)C(=O)O)cc1 [Example 84, (2S)-3-(4-(4-amidinophenoxy)butanoylamino)-2-(2-amino)benzenesulfonylaminopropanoic Acid] | 22
20 | N=C(N)c1ccc(CCCCC(=O)NC[C@H](NS(=O)(=O)c2cccc3ccccc23)C(=O)O)cc1 [Example 88, (2S)-3-(5-(4-amidinophenyl)pentanoylamino)-2-(1-naphthalene)sulfonylaminopropanoic Acid] | 44
21 | CCc1ccc(S(=O)(=O)N[C@@H](CNC(=O)CCCCc2ccc(C(=N)N)cc2)C(=O)O)cc1 [Example 89, (2S)-3-(5-(4-amidinophenyl)pentanoylamino)-2-(4-ethyl)benzenesulfonylaminopropanoic Acid] | 26
22 | N=C(N)c1ccc(CCCCC(=O)NC[C@H](NS(=O)(=O)c2ccccc2C(F)(F)F)C(=O)O)cc1 [Example 90, (2S)-3-(5-(4-amidinophenyl)pentanoylamino)-2-(2-trifluoromethyl)benzenesulfonylaminopropanoic Acid] | 15
23 | N=C(N)c1ccc(C(=O)CCCCC(=O)NC[C@H](NS(=O)(=O)c2ccccc2)C(=O)O)cc1 [Example 94, (2S)-3-(5-(4-amidinobenzoyl)pentanoylamino)-2-benzenesulfonylaminopropanoic Acid] | 31
24 | CN(CCC(=O)NC[C@H](NS(=O)(=O)c1ccccc1)C(=O)O)C(=O)c1ccc(C(=N)N)cc1 [Example 96, (2S)-3-(3-(4-amidinobenzoylmethylamino)propanoylamino)-2-benzensulfonylaminopropanoic Acid] | 57
25 | CCc1ccc(S(=O)(=O)N[C@@H](CNC(=O)CCN(C)C(=O)c2ccc(C(=N)N)cc2)C(=O)O)cc1 [Example 97, (2S)-3-(3-(4-amidinobenzoylmethylamino)propanoylamino)-2-(4-ethyl)benzenesulfonylaminopropanoic Acid] | 49
26 | N=C(NN)c1ccc(C(=O)NCCC(=O)NC[C@H](NS(=O)(=O)c2ccccc2)C(=O)O)cc1 [Example 101, (2S)-2-benzenesulfonylamino-3-(3-(4-hydrazinoiminobenzoylamino)propanoylamino)propanoic Acid] | 103
27 | CC(=O)NNC(=N)c1ccc(C(=O)NCCC(=O)NC[C@H](NS(=O)(=O)c2ccccc2)C(=O)O)cc1 [Example 102, (2S)-2-benzenesulfonylamino-3-(3-(4-acetylhydrazinoiminobenzoylamino)propanoylamino)propanoic Acid] | 35
28 | CCCCNC(=N)c1ccc(C(=O)NCCC(=O)NC[C@H](NS(=O)(=O)c2ccccc2)C(=O)O)cc1 [Example 103, (2S)-2-benzenesulfonylamino-3-(3-(4-(N-n-butylamidino)benzoylamino)propanoylamino)propanoic Acid] | 25
29 | CCCCCCNC(=N)c1ccc(C(=O)NCCC(=O)NC[C@H](NS(=O)(=O)c2ccccc2)C(=O)O)cc1 [Example 104, (2S)-2-benzenesulfonylamino-3-(3-(4-(N-n-hexylamidino)benzoylamino)propanoylamino)propanoic Acid] | 28
30 | N=C(NC1CCCCC1)c1ccc(C(=O)NCCC(=O)NC[C@H](NS(=O)(=O)c2ccccc2)C(=O)O)cc1 [Example 105, (2S)-2-benzenesulfonylamino-3-(3-(4-(N-cyclohexylamidino)benzoylamino)propanoylamino)propanoic Acid] | 22
31 | N=C(NCc1ccccc1)c1ccc(C(=O)NCCC(=O)NC[C@H](NS(=O)(=O)c2ccccc2)C(=O)O)cc1 [Example 106, (2S)-2-benzenesulfonylamino-3-(3-(4-(N-benzylamidino)benzoylamino)propanoylamino)propanoic Acid] | 116
32 | CNC(=N)c1ccc(OCCCC(=O)NC[C@H](NS(=O)(=O)c2ccccc2)C(=O)O)cc1 [Example 107, (2S)-2-benzenesulfonylamino-3-(4-(4-(N-methylamidino)phenoxy)butanoylamino)propanoic Acid] | 29
33 | CCNC(=N)c1ccc(OCCCC(=O)NC[C@H](NS(=O)(=O)c2ccccc2)C(=O)O)cc1 [Example 108, (2S)-2-benzenesulfonylamino-3-(4-(4-(N-ethylamidino)phenoxy)butanoylamino)propanoic Acid] | 51
